# Publication PMC3541233 (PLoS ONE, 2013)
# Biological target: T1, AmPDH (pyranose dehydrogenase, PDH) (Macropsalliota meleagris, UniProt Q3L245)
# T1 construct: gene pdh1; for crystals deglycosylated with alpha-mannosidase (577 residues)
# Assay: anaerobic reduction of enzyme FAD, absorption spectra
# Format: biochemical
# Settings: 20 µM oxidized enzyme, 20 µM substrate, 100 mM NaH2PO4 pH 7.5, 25 °C; C2 accessible
# T1 sequence (Q3L245 26-602): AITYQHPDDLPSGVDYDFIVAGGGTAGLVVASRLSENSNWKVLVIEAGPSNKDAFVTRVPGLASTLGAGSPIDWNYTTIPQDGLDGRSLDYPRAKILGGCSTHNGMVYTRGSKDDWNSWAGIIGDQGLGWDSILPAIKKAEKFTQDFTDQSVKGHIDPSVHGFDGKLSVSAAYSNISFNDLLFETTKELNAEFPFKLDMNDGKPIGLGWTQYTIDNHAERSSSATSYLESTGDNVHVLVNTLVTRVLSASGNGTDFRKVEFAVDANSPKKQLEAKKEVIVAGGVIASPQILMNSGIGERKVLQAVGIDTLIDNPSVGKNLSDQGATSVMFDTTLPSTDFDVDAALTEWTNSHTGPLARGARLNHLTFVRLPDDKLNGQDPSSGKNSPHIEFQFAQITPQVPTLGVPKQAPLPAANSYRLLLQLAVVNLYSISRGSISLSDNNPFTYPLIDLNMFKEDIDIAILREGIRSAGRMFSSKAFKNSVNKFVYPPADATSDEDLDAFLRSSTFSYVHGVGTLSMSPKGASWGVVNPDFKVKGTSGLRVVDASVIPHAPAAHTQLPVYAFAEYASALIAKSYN
smiles,measurement,value
OC[C@H]1OC(O)[C@H](O)[C@@H](F)[C@@H]1O (stereo partly shown),"anaerobic reduction of enzyme FAD, absorption spectra","showing that AmPDH was rapidly reduced, presumably by a hydride moiety at glucose C2"
